Laboratory results taken from patent publication US20040248245A1, “Zinc activated ion channel” (priority 2003, published 2004).
Where two headings read alike, the source gives them in different places.

Target: T1, human ZAC (zinc activated ion channel) (Homo sapiens, UniProt Q401N2)
T1 construct: expressed in transfected cells; host or cells: HEK (human embryonic kidney) cells, transient calcium phosphate transfection, vector pcDNA1.1/amp, GFP co-transfected on a separate plasmid (pCDM8)
T1 sequence (Q401N2 26-412): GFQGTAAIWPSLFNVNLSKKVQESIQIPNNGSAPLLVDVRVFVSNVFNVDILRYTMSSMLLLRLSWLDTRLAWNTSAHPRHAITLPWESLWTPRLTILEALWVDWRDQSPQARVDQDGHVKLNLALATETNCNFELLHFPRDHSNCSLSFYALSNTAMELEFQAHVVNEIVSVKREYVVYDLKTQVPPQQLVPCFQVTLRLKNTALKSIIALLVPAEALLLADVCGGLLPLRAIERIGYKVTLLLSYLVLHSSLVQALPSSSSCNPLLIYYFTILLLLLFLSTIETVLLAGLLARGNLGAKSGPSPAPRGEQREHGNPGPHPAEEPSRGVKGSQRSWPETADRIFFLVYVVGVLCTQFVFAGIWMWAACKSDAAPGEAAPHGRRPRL
Assay: Whole cell patch-clamp recording of currents from HEK cells transfected with human ZAC
Type: cell-based
Experimental: To generate HEK expressing hZAC, HEK cells were grown in Dulbecco's modified Eagle's medium, supplemented with 10% calf serum, 100 IU/ml penicillin, and 100 μg/ml streptomycin. Following confluence, the cells were seeded into 35 mm diameter dishes and transfected with cDNAs encoding the human ZAC subunit (in pcDNA1.1/amp) and green fluorescent protein (GFP) (in pCDM8). Cells were transfected using calcium phosphate precipitation as known in the art. Cells were used 24-44 h after transfection.
The whole cell patch-clamp technique was used to record currents from HEK cells. The bath was perfused continuously (5 ml/min) with an extracellular solution containing (in mM); NaCl, 140; KCl, 4.7; MgCl2, 1.2; CaCl2, 2.5; glucose, 11; and HEPES, 10 (pH 7.4 with NaOH). The electrode solution contained (in mM); KCl, 140; MgCl2, 2.0; EGTA, 11; and HEPES, 10 (pH 7.4 with KOH). The intracellular solution used to characterize the cation permeability of ZAC channels contained (in mM); KCl, 70; N-methyl-D-glucamine, 70; MgCl2, 2.0; EGTA, 11; and HEPES, 10 (pH 7.4 with HCl). The intracellular solution used to determine the contribution of Cl^− to the ZAC currents contained (in mM); KCl, 70; K^+ gluconate, 70; MgCl2, 2.0; EGTA, 11; and HEPES, 10 (pH 7.4 with KOH). Junction potentials were nulled prior to each experiment. Inappropriate inappropriate compensation was ignored in graphs of current-voltage relationships, but equilibrium potential values were corrected. Cells were clamped at −60 mV unless otherwise stated. Drugs were applied either by pressure ejection from modified micropipettes or by bath perfusion as known in the art. Experiments were performed at 22-24° C.
Currents were amplied (Axopatch 200A, Axon Instruments), low pass-filtered at 1 kHz, and digitized (Digidata 1320, Axon Instruments, Foster City, Calif.) for acquisition onto the hard drive of a personal computer. Currents were averaged, superimposed, and measured using pCLAMP software (Axon Instruments). Zn^+2 concentration-response data were obtained by prolonged (2 s) pressue ejection of randomized agonist concentrations from low resistance pipettes as known in the art.
To compensate, 1 mM Zn^+2 was applied before each concentration of Zn^+2. The amplitudes of the Zn^+2 activated currents were subsequently normalized to the current elicited by the prior application of 1 mM Zn^+2.
Graphs of concentration-response relationships were fitted using a logistic function as known in the art. Current-voltage relationships were analyzed by averaging at least two currents recorded at each holding potential. Individual current-voltage relationships were plotted, and a linear fit to points either side of current reversal yielded the equilibrium potential. All data are expressed as the arithmetic mean±S.E., and statistical comparisons were made using the Student's t test.

[1] = HEK cells expressing hZAC, whole cell patch-clamp, clamped at −60 mV, 22-24° C.
[2] = HEK cells expressing hZAC, whole cell patch-clamp

| Molecule | Activation of ZAC [1] | also measured |
| --- | --- | --- |
| NCCc1c[nH]c2ccc(O)cc12 [5-HT, 5-hydroxytryptamine] | did not activate | – |
| Nc1ncnc2c1ncn2[C@@H]1O[C@H](COP(=O)(O)OP(=O)(O)OP(=O)(O)O)[C@@H](O)[C@H]1O [ATP] | did not activate | – |
| NCCCC(=O)O [GABA, γ-amino butyric acid] | did not activate | – |
| COc1cc2c3cc1Oc1cc(ccc1O)C[C@@H]1c4c(cc(OC)c(O)c4Oc4ccc(cc4)C[C@@H]3N(C)CC2)CC[N+]1(C)C [Tubocurarine] | – | Effect of antagonists on ZAC (inhibition) [2]: inhibited |
| [Zn+2] [Zn^+2, zinc] | activated | Concentration required for activation of ZAC [2]: > 30 µM; Equilibrium potential of Zn+2 activated currents (HEK cells expressing hZAC, whole cell patch-clamp, mean±S.E.): −5±1 mV |
| CC(=O)[C@H]1CC[C@H]2[C@@H]3CC[C@H]4C[C@H](O)CC[C@]4(C)[C@H]3CC[C@]12C [allopregnanolone] | did not activate | – |
| C[N+]1(C)CCc2cc3c(cc2[C@H]1[C@@H]1OC(=O)c2c1ccc1c2OCO1)OCO3.[I-] [bicuculline methiodide] | – | Effect of antagonists on ZAC (inhibition) [2]: no effect |
| NCCc1ccc(O)c(O)c1 [dopamine] | did not activate | – |
| CNC[C@H](O)c1ccc(O)c(O)c1 [epinephrine] | – | Activation of ZAC: did not activate |
| N[C@@H](CCC(=O)O)C(=O)O [glutamate] | did not activate | – |
| N[C@@H](CCC(=O)N[C@@H](CS)C(=O)NCC(=O)O)C(=O)O [glutathione] | did not activate | – |
| NCC(=O)O [glycine] | did not activate | – |
| NCCc1c[nH]cn1 [histamine] | did not activate | – |
| CNC1(c2ccccc2Cl)CCCCC1=O (stereo not shown) [ketamine] | did not activate | – |
| CNC1(C)C2CCC(C2)C1(C)C (stereo not shown) [mecamylamine] | – | Effect of antagonists on ZAC (inhibition) [2]: no effect |
| CN1CC[C@]23c4c5ccc(O)c4O[C@H]2[C@@H](O)C=C[C@H]3[C@H]1C5 [morphine] | – | Activation of ZAC: did not activate |
| Cc1nccn1CC1CCc2c(c3ccccc3n2C)C1=O (stereo not shown) [ondansetron] | – | Effect of antagonists on ZAC (inhibition) [2]: no effect |
| CC[C@H](C)[C@@H]1NC(=O)[C@H](Cc2ccc(O)cc2)NC(=O)[C@@H](N)CSSC[C@@H](C(=O)N2CCC[C@H]2C(=O)N[C@@H](CC(C)C)C(=O)NCC(N)=O)NC(=O)[C@H](CC(N)=O)NC(=O)[C@H](CCC(N)=O)NC1=O [oxytocin] | did not activate | – |
| CC(C)c1cccc(C(C)C)c1O [propofol] | – | Activation of ZAC: did not activate |
| galonin | did not activate | – |
| neuropeptide Y | did not activate | – |
| somatostain | did not activate | – |
| α-bungarotoxin | – | Effect of antagonists on ZAC (inhibition): no effect |
